According to patent US20250188030A1, “Biphenyl and Phenylpyridine Compounds” (Pfizer Inc., priority 2023, published 2025):
“Also recorded” adds a separate entry of the source. Where two headings read alike, the source gives them in different places.

How the values were obtained:
[1] = Metabolite profile in hepatocytes, recombinant human UGT enzymes, and dog plasma and urine; type: in vitro ADME; details: hepatocytes (mouse, dog, human), plasma and urine from dogs
Description: The metabolite profile of 2-(2′-cyclobutyl-3′-fluoro-6-{[(1R,3R)-3-{[(7S)-7-fluoro-5-azaspiro[3.4]octane-7-carbonyl]amino}cyclopentyl]oxy}[1, 1′-biphenyl]-3-yl)-2-methylpropanoic acid (Example A1) assessed in hepatocytes (mouse, dog, human), recombinant human UGT enzymes, and plasma and urine from dogs.
General methods/reviews of obtaining metabolite profile and identifying metabolites of a compound are described in: DAVLIE, 0., et al., “Assessment of Three Human in Vitro Systems in the Generation of Major Human Excretory and Circulating Metabolites,” Chemical Research in Toxicology, 2009, 22(2):357-368; KING, R., “Chapter Three—Biotransformations in Drug Metabolism.” Drug Metabolism Handbook: Concepts and Applications in Cancer Research, edited by Ala F. Nassar et al., Wiley, 2022, 17-38; WU, Y., et al., “Metabolite Identification in Preclinical and Clinical Phase of Drug Development,” Current Drug Metabolism, 2021, 22(11):838-857; GODZIEN, J., et al., “Chapter Fifteen—Metabolite Annotation and Identification.” Comprehensive Analytical Chemistry, Elsevier, 2018, 415-445.

MM.1S cells = assay: MM1.S 10 Day Proliferation Assay (CellTiter-Glo); type: cell-based, Human; details: Homo sapiens, MM1.S, 240 h
Method in brief: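 MM.1S cells, 500/well in ultra-low-attachment plates, were pre-incubated 16 h, then exposed to a 10-point 1:3 dilution series (top 10 μM final, 0.1% DMSO) for 10 days at 37 °C, with compound-containing medium refreshed at day 5. Viability was read by CellTiter-Glo luminescence; IC50 came from four-parameter fit.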

KAT2B = KAT2B (Homo sapiens (Human), UniProt Q92831); assay: KAT2B acetyltransferase biochemical assay (RapidFire mass spectrometry, AcCoA to CoA)
KAT2A = KAT2A (Homo sapiens (Human), UniProt Q92830); assay: KAT2A acetyltransferase biochemical assay (RapidFire mass spectrometry, AcCoA to CoA)
H3K9AC (HT1080 cells) = assay: H3K9AC Sandwich ELISA Assay in HT1080 cells (KAT2A primary cell-based screening assay); design: species or system Human; details: Homo sapiens, HT-1080, H3K9AC sandwich ELISA
Method in brief: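 HT1080 fibrosarcoma cells seeded 16 h, then treated 24 h at 37 °C with 10-point 1:3 compound dilutions (top 10 µM final, 0.1% DMSO). Acid lysates neutralized with butyrate/PMSF; H3K9ac measured by total-H3-capture sandwich ELISA with luminescent HRP readout, IC50 by four-parameter fit.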

[2] = read-out: KAT2B Ki at 1 μM AcCoA, 1 μM AcCoA, 5 μM H3 1-21 peptide, 0.5 nM KAT2B, 90-minute reaction
[3] = read-out: KAT2A Ki at 1 μM AcCoA, 5 μM H3 1-21 peptide, 0.5 nM KAT2A, 90-minute reaction

Sequence of KAT2A (Q92830 whole entry): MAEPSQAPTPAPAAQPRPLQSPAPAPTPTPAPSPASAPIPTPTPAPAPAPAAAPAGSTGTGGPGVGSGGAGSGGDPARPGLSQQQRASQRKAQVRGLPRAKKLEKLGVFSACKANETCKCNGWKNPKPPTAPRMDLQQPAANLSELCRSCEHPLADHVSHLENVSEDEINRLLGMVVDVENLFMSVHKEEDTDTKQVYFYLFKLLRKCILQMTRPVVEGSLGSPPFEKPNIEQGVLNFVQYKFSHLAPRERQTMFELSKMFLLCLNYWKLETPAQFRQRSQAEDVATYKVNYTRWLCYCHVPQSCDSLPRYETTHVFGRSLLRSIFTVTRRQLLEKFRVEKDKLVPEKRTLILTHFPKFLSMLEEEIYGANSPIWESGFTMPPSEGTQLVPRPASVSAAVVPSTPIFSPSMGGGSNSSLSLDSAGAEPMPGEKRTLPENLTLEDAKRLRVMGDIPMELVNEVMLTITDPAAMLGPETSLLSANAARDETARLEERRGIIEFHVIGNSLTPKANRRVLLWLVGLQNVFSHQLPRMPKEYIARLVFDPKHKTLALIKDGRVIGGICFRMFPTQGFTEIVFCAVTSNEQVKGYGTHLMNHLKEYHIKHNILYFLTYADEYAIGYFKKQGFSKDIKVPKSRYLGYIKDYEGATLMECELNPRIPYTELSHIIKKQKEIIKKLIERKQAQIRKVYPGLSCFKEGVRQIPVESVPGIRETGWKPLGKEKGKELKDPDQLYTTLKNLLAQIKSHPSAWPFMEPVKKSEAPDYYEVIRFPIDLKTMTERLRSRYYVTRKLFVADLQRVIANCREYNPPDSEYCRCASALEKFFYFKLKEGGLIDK
Sequence of KAT2B (Q92831 2-832): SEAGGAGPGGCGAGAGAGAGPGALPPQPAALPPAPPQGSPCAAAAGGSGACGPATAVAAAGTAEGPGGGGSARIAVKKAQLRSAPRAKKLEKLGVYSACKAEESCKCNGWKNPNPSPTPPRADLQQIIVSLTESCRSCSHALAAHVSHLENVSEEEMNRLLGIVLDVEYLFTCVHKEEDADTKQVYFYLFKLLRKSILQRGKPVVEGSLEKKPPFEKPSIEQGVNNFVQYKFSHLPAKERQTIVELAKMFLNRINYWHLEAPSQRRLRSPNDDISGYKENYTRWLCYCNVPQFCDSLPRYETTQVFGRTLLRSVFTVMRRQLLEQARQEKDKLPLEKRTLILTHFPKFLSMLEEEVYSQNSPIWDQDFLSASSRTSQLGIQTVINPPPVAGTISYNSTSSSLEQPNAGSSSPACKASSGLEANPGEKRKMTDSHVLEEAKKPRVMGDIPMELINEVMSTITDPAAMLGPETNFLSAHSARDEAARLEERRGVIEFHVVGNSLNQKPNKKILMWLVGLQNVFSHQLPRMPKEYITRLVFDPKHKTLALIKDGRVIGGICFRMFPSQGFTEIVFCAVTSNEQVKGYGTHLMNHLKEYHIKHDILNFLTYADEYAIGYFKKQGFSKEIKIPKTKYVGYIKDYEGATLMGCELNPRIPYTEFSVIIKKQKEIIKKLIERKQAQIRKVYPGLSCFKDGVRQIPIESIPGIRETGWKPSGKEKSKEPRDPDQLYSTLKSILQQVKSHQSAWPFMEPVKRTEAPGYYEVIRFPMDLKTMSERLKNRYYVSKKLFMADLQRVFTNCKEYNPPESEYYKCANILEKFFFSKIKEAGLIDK

| IC50 (MM.1S cells) | Ki (KAT2B; [2]) | Ki (KAT2A; [3]) | IC50 (H3K9AC (HT1080 cells)) | Ki (KAT2B) | Ki (KAT2A; KAT2A Ki at 1 μM AcCoA, 5 μM H3 1-21 peptide, 0.5 nM KAT2A, 90-minute reaction) | SMILES | additional metabolites observed [1] | most significant metabolite observed [1] |
| --- | --- | --- | --- | --- | --- | --- | --- | --- |
| 3.82 nM | 0.02 nM | 0.03 nM | 0.84 nM | – | – | CN1CC(C)(C)C[C@H]1C(=O)N[C@@H]1CC[C@@H](Oc2ccc(CC(=O)NS(=O)(=O)N(C)C)cc2-c2cccc(F)c2C2CCC2)C1 [Example E3, N-{(1R,3R)-3-[(2′-cyclobutyl-5-{2-[(dimethylsulfamoyl)amino]-2-oxoethyl}-3′-fluoro[1,1′-biphenyl]-2-yl)oxy]cyclopentyl}-1,4,4-trimethyl-L-prolinamide] | – | – |
| 15.9 nM | 0.21 nM | 0.08 nM | 8.38 nM | – | – | CN1CC(C)(C)C[C@H]1C(=O)N[C@@H]1CC[C@@H](Oc2ccc(C(C)(C)C(=O)NS(=O)(=O)N(C)C)cc2-c2cccc(F)c2C2CCC2)C1 [Example E4, N-{(1R,3R)-3-[(2′-cyclobutyl-5-{1-[(dimethylsulfamoyl)amino]-2-methyl-1-oxopropan-2-yl}-3′-fluoro[1,1′-biphenyl]-2-yl)oxy]cyclopentyl}-1,4,4-trimethyl-L-prolinamide] | – | – |

More lines, now with the values behind:

| SMILES | IC50 (MM.1S cells) | Ki (KAT2B; [2]) | Ki (KAT2A; [3]) | IC50 (H3K9AC (HT1080 cells)) | Ki (KAT2B) | Ki (KAT2A; KAT2A Ki at 1 μM AcCoA, 5 μM H3 1-21 peptide, 0.5 nM KAT2A, 90-minute reaction) | additional metabolites observed [1] | most significant metabolite observed [1] |
| --- | --- | --- | --- | --- | --- | --- | --- | --- |
| CC(C)(C(=O)O)c1ccc(O[C@@H]2CC[C@@H](NC(=O)[C@@]3(F)CNC4(CCC4)C3)C2)c(-c2cccc(F)c2C2CCC2)c1 [Example A1, 2-(2′-cyclobutyl-3′-fluoro-6-{[(1R,3R)-3-{[(7S)-7-fluoro-5-azaspiro[3.4]octane-7-carbonyl]amino}cyclopentyl]oxy}[1,1′-biphenyl]-3-yl)-2-methylpropanoic acid] | 45.3 nM | 2.65 nM | 0.47 nM | 8.16 nM | – | – | CYP-mediated oxidation on the cyclobutane ring, the gem-dimethyl group and/or one or both of the biaryl rings; also recorded: direct glucose conjugate from UGT enzymes or chemical reaction | glucuronidation of the carboxylic acid group (Acyl glucuronide) |
| CN1CC(C)(C)C[C@H]1C(=O)N[C@@H]1CC[C@@H](Oc2ccc(-c3cn(C)nc3C(=O)O)cc2-c2cccc(F)c2C2CCC2)C1 [Example J1, 4-[2′-cyclobutyl-3′-fIuoro-6-({(1R,3R)-3-[(1,4,4-trimethyl -L-prolyl)amino]cyclopentyl}oxy)[1,1′-biphenyl]-3-yl]-1-methyl-1H-pyrazole-3-carboxylic acid] | 8.43 nM | – | – | 14.9 nM | 0.74 nM | 0.41 nM | – | – |
| CN1CC(C)(C)C[C@H]1C(=O)N[C@H]1C[C@H](Oc2ccc(CC(=O)O)cc2-c2cccc(F)c2C2CCC2)C[C@H]1O [Example K4, [2′-cyclobutyl-3′-fluoro-6-({(1S,3R,4S)-3-hydroxy-4-[(1,4,4-trimethyl-L-prolyl)amino]cyclopentyl}oxy)[1,1′-biphenyl]-3-yl]acetic acid] | 45.6 nM | 0.94 nM | 0.7 nM | 4.56 nM | – | – | – | – |
